In DBAASP:
In brackets after ≈: the same amount, converted by molar mass. Blank lines part the entries; values can stand above or below the compound they belong to.

Key:
Assay in all cases: ≥ marks a high value that may be exact or a test limit, other limits are often not marked, values filed in µg/mL are converted to µM
[1] = test system: Staphylococcus aureus P1374
[2] = test system: Staphylococcus aureus ATCC 6538
[3] = test system: Pseudomonas aeruginosa ATCC 9027
Escherichia coli AB94012 = test system: Escherichia coli AB94012
[4] = test system: Escherichia coli ATCC 25922
[5] = test system: Pseudomonas aeruginosa AB93066
[6] = test system: Staphylococcus aureus AB94004
[7] = test system: Staphylococcus aureus ATCC 25923
[8] = test system: Staphylococcus aureus P1381
[9] = test system: Listeria fleischmannii DSM 24998
Listeria grayi DSM 20601 = test system: Listeria grayi DSM 20601
[10] = test system: Micrococcus luteus DSM 20030
Escherichia coli D31 = test system: Escherichia coli D31
[11] = test system: Listeria monocytogenes DSM 20600
[12] = test system: Micrococcus luteus CCM 144
Pseudomonas aeruginosa = test system: Pseudomonas aeruginosa
[13] = test system: Candida albicans F7-39/IDE99
Escherichia coli B = test system: Escherichia coli B
Staphylococcus aureus = test system: Staphylococcus aureus
Bacillus subtilis 168 = test system: Bacillus subtilis 168
[14] = test system: Fusarium graminearum PH-1
[15] = test system: Staphylococcus aureus ATCC 29213
[16] = test system: Staphylococcus aureus WKZ-2
[17] = test system: Bacillus atrophaeus BM013
[18] = test system: Pseudomonas aeruginosa PAO1
[19] = test system: Salmonella enterica subsp. enterica serovar Enteritidis 706 RIVM
[20] = test system: Bacillus licheniformis ATCC 21424
[21] = test system: Pseudomonas aeruginosa ATCC 27853
[22] = test system: Staphylococcus aureus NCTC 10442
Escherichia coli = test system: Escherichia coli
[23] = test system: Acinetobacter baumannii ATCC BAA-747
Acinetobacter baumannii = test system: Acinetobacter baumannii
Staphylococcus aureus MR = test system: Staphylococcus aureus MR
[24] = test system: Klebsiella pneumoniae ATCC 700603
Klebsiella pneumoniae = test system: Klebsiella pneumoniae

MIC [1]: 4.04 µM (≈ 6.25 µg/mL)
MIC [2]: 4.04 µM (≈ 6.25 µg/mL)
MIC [3]: 16.2 µM (≈ 25 µg/mL)
MIC (Escherichia coli AB94012): 16.2 µM (≈ 25 µg/mL)
MIC [4]: 64.7 µM (≈ 99.9 µg/mL)
MIC [5]: ≥ 32.3 µM
MIC [6]: 4.04 µM (≈ 6.25 µg/mL)
MIC [7]: 8.09 µM (≈ 12.5 µg/mL)
MIC [8]: 4.04 µM (≈ 6.25 µg/mL)
Compound: CC[C@H](C)[C@H](NC(=O)CN)C(=O)N[C@@H](CC(C)C)C(=O)NCC(=O)N[C@@H](CCCCN)C(=O)N[C@@H](CC(C)C)C(=O)N[C@@H](Cc1c[nH]c2ccccc12)C(=O)N[C@@H](CCCCN)C(=O)NCC(=O)N[C@H](C(=O)N[C@@H](CCCCN)C(=O)N[C@@H](CO)C(=O)N[C@H](C(=O)N[C@@H](Cc1ccccc1)C(N)=O)[C@@H](C)CC)C(C)C [GILGKLWKGVKSIF]

MIC [9]: 30 µM (≈ 74.9 µg/mL)
MIC (Listeria grayi DSM 20601): 8 µM (≈ 20 µg/mL)
MIC [10]: 0.25 µM (≈ 0.625 µg/mL)
MIC (Escherichia coli D31): 8 µM (≈ 20 µg/mL)
MIC [11]: 30 µM (≈ 74.9 µg/mL)
Compound: CC[C@H](C)[C@H](NC(=O)[C@H](C)NC(=O)[C@H](CO)NC(=O)[C@H](CCCCN)NC(=O)[C@@H]1CCCN1C(=O)[C@@H](NC(=O)[C@H](CCCCN)NC(=O)[C@H](CC(C)C)NC(=O)[C@H](CO)NC(=O)[C@H](CC(C)C)NC(=O)[C@H](CCCCN)NC(=O)[C@H](CC(C)C)NC(=O)[C@H](Cc1ccccc1)NC(=O)[C@@H]1CCCN1C(=O)[C@@H](N)Cc1ccccc1)[C@@H](C)CC)C(=O)N[C@@H](CCCCN)C(=O)N[C@@H](CO)C(=O)N[C@@H](C)C(=O)N[C@H](C(=O)N[C@@H](CCCCN)C(=O)N[C@@H](CCCN=C(N)N)C(=O)N[C@@H](CC(C)C)C(N)=O)[C@@H](C)CC [FPFLKLSLKIPKSAIKSAIKRL]

MIC [12]: 1.4 µM (≈ 2.71 µg/mL)
MIC (Pseudomonas aeruginosa): 100 µM (≈ 193 µg/mL)
MIC [13]: ≥ 56.3 µM
MIC (Escherichia coli B): 2.9 µM (≈ 5.6 µg/mL)
MIC (Staphylococcus aureus): 35 µM (≈ 67.6 µg/mL)
MIC (Bacillus subtilis 168): 3.1 µM (≈ 5.99 µg/mL)
Compound: CC[C@H](C)[C@H](NC(=O)[C@H](CC(C)C)NC(=O)[C@H](CCCCN)NC(=O)[C@@H](NC(=O)[C@@H](NC(=O)[C@H](Cc1cnc[nH]1)NC(=O)[C@@H]1CCCN1C(=O)[C@H](CC(C)C)NC(=O)[C@@H](NC(=O)[C@H](CCCCN)NC(=O)[C@H](C)NC(=O)[C@H](CC(C)C)NC(=O)[C@H](CCCCN)NC(=O)[C@H](CO)NC(=O)[C@H](C)NC(=O)[C@H](CCSC)NC(=O)CN)C(C)C)C(C)C)C(C)C)C(=O)N[C@@H](CCCCN)C(=O)O [GMASKLAKVLPHVVKLIK]

MIC [14]: ≥ 96 µM
Compound: NC(N)=NCCC[C@H](NC(=O)[C@H](Cc1ccccc1)NC(=O)[C@H](CC(=O)O)NC(=O)[C@H](CC(=O)O)NC(=O)[C@@H](N)CCCN=C(N)N)C(=O)O [RDDFR]

MIC [15]: > 40 µM
MIC [16]: ≥ 40 µM
MIC [17]: 2.5 µM (≈ 7.05 µg/mL)
MIC [4]: 10 µM (≈ 28.2 µg/mL)
MIC [18]: 20 µM (≈ 56.4 µg/mL)
MIC [19]: ≥ 40 µM
MIC [20]: 1.25 µM (≈ 3.53 µg/mL)
MIC [21]: > 40 µM
Compound: CC[C@H](C)[C@H](NC(=O)[C@H](Cc1ccccc1)NC(=O)[C@H](CCCCN)NC(=O)[C@H](CC(C)C)NC(=O)[C@H](CCCCN)NC(=O)CNC(=O)[C@@H]1CCCN1C(=O)[C@H](CCCCN)NC(=O)[C@H](CC(C)C)NC(=O)[C@H](C)NC(=O)[C@@H](NC(=O)[C@H](Cc1cnc[nH]1)NC(=O)[C@@H]1CCCN1)C(C)C)C(=O)N[C@H](C(=O)N1CCC[C@H]1C(=O)N[C@@H](CO)C(=O)N1CCC[C@H]1C(=O)N[C@@H](CCCCN)C(=O)N[C@@H](CCCN=C(N)N)C(=O)N1CCC[C@H]1C(=O)N[C@H](C(=O)N[C@@H](CCCCN)C(=O)N[C@@H](CC(C)C)C(=O)N[C@@H](CC(C)C)C(=O)N[C@@H](CO)C(=O)NCC(=O)O)C(C)C)[C@@H](C)CC [PHVALKPGKLKFIIPSPKRPVKLLSG]

MIC [22]: 5.46 µM (≈ 16 µg/mL)
MIC (Escherichia coli): 7.73 µM (≈ 22.6 µg/mL)
MIC [23]: 21.9 µM (≈ 64 µg/mL)
MIC (Acinetobacter baumannii): 10.9 µM (≈ 32 µg/mL)
MIC [4]: 10.9 µM (≈ 32 µg/mL)
MIC (Staphylococcus aureus MR): 2.73 µM (≈ 8 µg/mL)
MIC (Staphylococcus aureus): 5.46 µM (≈ 16 µg/mL)
MIC [24]: 43.7 µM (≈ 128 µg/mL)
MIC (Klebsiella pneumoniae): 21.9 µM (≈ 64 µg/mL)
MIC [21]: 43.7 µM (≈ 128 µg/mL)
Compound: CC[C@H](C)[C@H](NC(=O)[C@H](CCSC)NC(=O)[C@H](C)NC(=O)[C@@H]1CCCN1C(=O)[C@@H](NC(=O)[C@@H](NC(=O)[C@H](CCCCN)NC(=O)[C@@H](NC(=O)[C@H](CC(C)C)NC(=O)CNC(=O)CNC(=O)[C@H](CC(C)C)NC(=O)[C@@H](N)Cc1ccccc1)[C@@H](C)CC)[C@@H](C)CC)C(C)C)C(=O)N[C@@H](CS)C(=O)N[C@@H](C)C(=O)N[C@H](C(=O)N[C@H](C(=O)N[C@@H](CCCCN)C(=O)N[C@@H](CCCCN)C(=O)N[C@@H](CS)C(=O)N[C@@H](Cc1cnc[nH]1)C(=O)N[C@@H](Cc1cnc[nH]1)C(=O)N[C@@H](Cc1cnc[nH]1)C(=O)N[C@@H](Cc1cnc[nH]1)C(=O)N[C@@H](Cc1cnc[nH]1)C(=O)N[C@@H](Cc1cnc[nH]1)C(=O)O)[C@@H](C)O)C(C)C [FLGGLIKIVPAMICAVTKKCHHHHHH]
